What all share (type): toxicity, cell-based
In one data set the test system is U2OS. The data set can be described thus: Incucyte cell viability with U2OS. The settings on record: human, 24 h, 10 µM, compound concentration 10 uM.
The test system of another data set is HEK-293T. Put plainly: Incucyte cell viability with HEK293T. The settings on record: human, 24 h, 10 µM, compound concentration 10 uM.
A further data set relates to Fibroblast. Put plainly: Incucyte cell viability with human fibroblast. To be noted: 24 h, 10 µM, compound concentration 10 uM.
Also: unitless GR value; below 1 slowed growth and below 0 cell loss.

Take `CC(=O)N[C@@H](Cc1ccc(O)cc1)C(=O)N[C@H](C(=O)N[C@@H](C)C(=O)N[C@@H](CC(=O)O)C(=O)COC(=O)c1c(C)cccc1C)C(C)C`: the “Growth Rate” value in the data set with U2OS (replicate number 1) is given as 1; in the data set on HEK-293T (replicate number 1), 0.9; with HEK-293T (replicate number 2) it was 0.84; in the data set on Fibroblast (replicate number 1), 0.47; in the data set on Fibroblast (replicate number 2) it was 0.72.

In the case of `C[C@H](NC(=O)[C@H](Cc1ccccc1)NC(=O)OCc1ccccc1)C(=O)CF`, the “Growth Rate” value amounted to 0.43 in the data set with U2OS (replicate number 1); 0.93 in the data set with U2OS (replicate number 2); 0.53 in the data set with HEK-293T (replicate number 1); 0.77 in the data set on HEK-293T (replicate number 2); 1 with Fibroblast (replicate number 1).

Regarding `O=C(c1ccc2c(ccn2-c2ccc(F)cc2)c1)N1CC(N2CCN(C(=O)c3nccs3)CC2)C1`, the “Growth Rate” value was 0.99 in the data set with U2OS (replicate number 1); 0.91 in the data set with U2OS (replicate number 2); 0.76 with HEK-293T (replicate number 1); 0.97 with HEK-293T (replicate number 2); 0.6 with Fibroblast (replicate number 1); 1 in the data set on Fibroblast (replicate number 2).

Consider `C[C@@H]1CN(c2ncc(Cl)c(Nc3ccc4c(c3)n(CCC(C)(C)O)c(=O)n4C)n2)C[C@H](C)C1(F)F`, for which the “Growth Rate” value in the data set on U2OS (replicate number 1) is 0.72; with U2OS (replicate number 2) it was 0.69; in the data set on HEK-293T (replicate number 1) it was 0.18; in the data set with HEK-293T (replicate number 2) it was 0.21; with Fibroblast (replicate number 1), 0.91; in the data set on Fibroblast (replicate number 2), -0.13.

As for `CC(C)(O)c1ccc(N2Cc3c(ccnc3-c3ccc(F)cc3OCC(F)(F)F)C2=O)cc1`, the “Growth Rate” value with U2OS (replicate number 1) was determined as 0.05; with U2OS (replicate number 2), 1; with HEK-293T (replicate number 1), 0.87; in the data set on HEK-293T (replicate number 2), 1; in the data set on Fibroblast (replicate number 1) it was 0.68; in the data set on Fibroblast (replicate number 2), 0.44.

Take `[2H]C([2H])([2H])C1(C([2H])([2H])[2H])Cn2nc(-c3ccc(F)cn3)c(-c3ccnc4[nH]ncc34)c2CO1`: the “Growth Rate” value in the data set with U2OS (replicate number 1) was determined as 0.32; in the data set on U2OS (replicate number 2) it was 0.8; with HEK-293T (replicate number 1), 0.81; in the data set with HEK-293T (replicate number 2), 0.89; with Fibroblast (replicate number 1), 0.73; in the data set on Fibroblast (replicate number 2) it was 1.

On to `COc1cccc(-c2nccc3c2CN(c2ccccc2)C3=O)c1`, for which the “Growth Rate” value in the data set on U2OS (replicate number 1) is 1; with U2OS (replicate number 2), 0.84; in the data set with HEK-293T (replicate number 1), 0.75; with HEK-293T (replicate number 2), 0.7; in the data set on Fibroblast (replicate number 1), 0.52; with Fibroblast (replicate number 2), 0.84.

As for `C[C@@H]1CN(c2nccc(Nc3ccc4c(c3)n(CCC(C)(C)O)c(=O)n4C)n2)C[C@H](C)C1(F)F`, the “Growth Rate” value in the data set with U2OS (replicate number 1) worked out at 0.72; with U2OS (replicate number 2) it was 0.76; with HEK-293T (replicate number 1), 0.03; in the data set with HEK-293T (replicate number 2), 0.19; with Fibroblast (replicate number 1) it was 0.74; in the data set with Fibroblast (replicate number 2), 1.

For `CC(=O)Nc1ccc(-c2cc(-c3ccccc3)nc3cc(C(=O)NCCCn4ccnc4)nn23)cc1`, the “Growth Rate” value is listed as 1 in the data set with U2OS (replicate number 1); 0.62 in the data set on U2OS (replicate number 2); 0.47 with HEK-293T (replicate number 1); 0.63 in the data set on HEK-293T (replicate number 2); 0.41 in the data set on Fibroblast (replicate number 1); 1 in the data set with Fibroblast (replicate number 2).

Regarding `O=C(NCCCn1ccnc1)c1cc2nc(-c3ccccc3)cc(-c3ccccc3)n2n1`, the “Growth Rate” value with U2OS (replicate number 1) is reported as 0.13; with U2OS (replicate number 2), 0.75; in the data set with HEK-293T (replicate number 1) it was 0.48; in the data set with HEK-293T (replicate number 2) it was 0.98; in the data set on Fibroblast (replicate number 1), 0.96; with Fibroblast (replicate number 2) it was 1.

For `C[C@H](NC(=O)c1cn(C2(C#N)CC2)cn1)C(=O)Nc1nc(-c2cccc(-c3ccn(C)n3)c2)cs1`, the “Growth Rate” value came out at 0.33 in the data set with U2OS (replicate number 1); 1 in the data set on U2OS (replicate number 2); 0.9 in the data set on HEK-293T (replicate number 1); 0.86 in the data set on HEK-293T (replicate number 2); 0.43 in the data set on Fibroblast (replicate number 1); 1 in the data set on Fibroblast (replicate number 2).

In the case of `CCn1c(=O)c(C)cn(Cc2nnc(-c3ccc(F)c(O)c3F)s2)c1=O`, the “Growth Rate” value in the data set on U2OS (replicate number 1) came to 1; in the data set with U2OS (replicate number 2), 0.92; in the data set with HEK-293T (replicate number 1), 1; in the data set on HEK-293T (replicate number 2), 0.97; with Fibroblast (replicate number 1), 0.03; in the data set on Fibroblast (replicate number 2) it was 1.

With `COCCOCCn1nc2c(c1C)-c1c(Cl)ccc3c1c(C)c(C(=O)O)n3CCCOc1cc(cc3c(F)c(Cl)ccc13)CCc1cc(nn1C)CSC2`, the “Growth Rate” value is 0.15 with U2OS (replicate number 1); 0.75 in the data set with U2OS (replicate number 2); 0.27 with HEK-293T (replicate number 1); 0.51 with HEK-293T (replicate number 2); -0.35 in the data set on Fibroblast (replicate number 1); -0.82 in the data set on Fibroblast (replicate number 2).

On to `Cc1cc(C(=O)N2CCN(C3CN(C(=O)c4ccc(-c5ccccc5)cc4)C3)CC2)no1`, for which the “Growth Rate” value was determined as 0.79 with U2OS (replicate number 1); 1 in the data set with U2OS (replicate number 2); 0.61 with HEK-293T (replicate number 1); 0.63 in the data set on HEK-293T (replicate number 2); 0.37 with Fibroblast (replicate number 1); 0.27 in the data set with Fibroblast (replicate number 2).

As to `CCn1c(=O)c(C)cn(Cc2nnc(-c3ccc(F)c(OC)c3F)s2)c1=O`, the “Growth Rate” value in the data set on U2OS (replicate number 1) is reported as 0.26; in the data set with U2OS (replicate number 2) it was 1; with HEK-293T (replicate number 1), 0.83; in the data set with HEK-293T (replicate number 2), 0.9; in the data set with Fibroblast (replicate number 1) it was 0.35; in the data set with Fibroblast (replicate number 2) it was 1.

Turning to `COC[C@H](NC(=O)c1ccn(S(C)(=O)=O)c1)C(=O)Nc1nc(-c2cccc(-c3ccn(C)n3)c2)cs1`, the “Growth Rate” value is listed as 0.77 in the data set with U2OS (replicate number 1), 1 in the data set with HEK-293T (replicate number 1), 0.89 in the data set with Fibroblast (replicate number 1) and 1 in the data set with Fibroblast (replicate number 2).

Turning to `CCC[C@@H]1CNCc2c1[nH]c(=O)c(C#N)c2N1CCC2(CC1)CC2.Cl`, the “Growth Rate” value with U2OS (replicate number 1) amounted to 0.72; in the data set on U2OS (replicate number 2), 0.8; with HEK-293T (replicate number 1), 0.66; with HEK-293T (replicate number 2) it was 0.97; in the data set with Fibroblast (replicate number 1) it was 0.62; in the data set with Fibroblast (replicate number 2), 0.92.

Turning to `Cn1ncc2c(-c3c(-c4ccc(F)cn4)nn4c3COC(C)(C)C4)ccnc21`, the “Growth Rate” value is recorded as 0.55 with U2OS (replicate number 1); 0.95 in the data set on U2OS (replicate number 2); 0.85 in the data set on HEK-293T (replicate number 1); 0.8 in the data set on HEK-293T (replicate number 2); 0.66 in the data set with Fibroblast (replicate number 1); 1 in the data set on Fibroblast (replicate number 2).

As to `CCC(NC(=O)C(CC(C)C)NC(=O)OCc1ccccc1)C(=O)C(=O)NCCCN1CCOCC1.O=C(O)C(F)(F)F` (stereo not given), the “Growth Rate” value is listed as 1 in the data set on U2OS (replicate number 1), 0.73 in the data set on HEK-293T (replicate number 1), 0.97 in the data set on HEK-293T (replicate number 2) and 1 with Fibroblast (replicate number 1).

In the case of `CC(=O)N[C@@H](CC(=O)O)C(=O)N[C@@H](CCC(=O)O)C(=O)N[C@H](C(=O)N[C@H](C=O)CC(=O)O)C(C)C.O=C(O)C(F)(F)F`, the “Growth Rate” value in the data set on U2OS (replicate number 1) is reported as 1; in the data set with HEK-293T (replicate number 1), 0.74; in the data set with HEK-293T (replicate number 2), 1; in the data set with Fibroblast (replicate number 1), 0.55; in the data set on Fibroblast (replicate number 2), 0.22.

In the case of `CNC(=O)c1cc(Nc2ccnc(Nc3ccc(CCNC(=O)OC(C)(C)C)cc3)n2)[nH]n1`, the “Growth Rate” value is reported as 0.07 with U2OS (replicate number 1); 0.79 in the data set with U2OS (replicate number 2); 0.07 in the data set with HEK-293T (replicate number 1); 0.24 in the data set with HEK-293T (replicate number 2); 1 in the data set with Fibroblast (replicate number 1).

For the compound `O=C(Nc1c[nH]nc1C(=O)NC1CCNCC1)c1cc(F)cc(F)c1`, the “Growth Rate” value is -0.13 with U2OS (replicate number 1); 0.19 in the data set on U2OS (replicate number 2); 0.15 in the data set on HEK-293T (replicate number 1); 0.14 in the data set with HEK-293T (replicate number 2); -0.45 in the data set with Fibroblast (replicate number 1); -0.55 with Fibroblast (replicate number 2).

With `Cn1cc(NC(=O)c2cc(F)cc(F)c2)c(C(=O)NC2CCNCC2)n1`, the “Growth Rate” value is recorded as 0.63 in the data set on U2OS (replicate number 1); 0.71 in the data set on U2OS (replicate number 2); 0.67 with HEK-293T (replicate number 1); 0.9 with HEK-293T (replicate number 2); 0.67 in the data set on Fibroblast (replicate number 1); 1 in the data set with Fibroblast (replicate number 2).

Consider `CC(C)c1cnc(CSc2cnc(NC(=O)C3CCNCC3)s2)o1`, for which the “Growth Rate” value in the data set on U2OS (replicate number 1) is listed as -0.6; in the data set with U2OS (replicate number 2), -0.31; in the data set on HEK-293T (replicate number 1) it was -0.28; with HEK-293T (replicate number 2), -0.09; in the data set on Fibroblast (replicate number 1), -0.05; in the data set on Fibroblast (replicate number 2), -0.46.

Turning to `CN1CCN(c2cc(C(=O)Nc3ncc(SCc4cccc(C(F)(F)F)c4)s3)ccn2)CC1`, the “Growth Rate” value in the data set on U2OS (replicate number 1) is reported as 0.31; with U2OS (replicate number 2), 0.48; in the data set on HEK-293T (replicate number 1), 0.24; with HEK-293T (replicate number 2), 0.59; in the data set with Fibroblast (replicate number 1), 0.19; in the data set with Fibroblast (replicate number 2) it was 1.

On to `CC(=O)N[C@@H](Cc1ccc(O)cc1)C(=O)N[C@H](C(=O)N[C@@H](C)C(=O)N[C@@H](CC(=O)O)C(=O)CCl)C(C)C`, for which the “Growth Rate” value came to 1 with U2OS (replicate number 1); 0.82 in the data set on HEK-293T (replicate number 1); 0.89 with HEK-293T (replicate number 2); 0.42 in the data set with Fibroblast (replicate number 1); 1 with Fibroblast (replicate number 2).

Turning to `CC(C)(C)OC(=O)Nc1ccc(CNc2nccc(Nc3cc(C(=O)OC(C)(C)C)[nH]n3)n2)cc1`, the “Growth Rate” value is listed as 0.42 in the data set on U2OS (replicate number 1); 0.67 in the data set with U2OS (replicate number 2); -0.38 in the data set on HEK-293T (replicate number 1); -0.24 with HEK-293T (replicate number 2); 1 in the data set on Fibroblast (replicate number 1); 0.07 in the data set with Fibroblast (replicate number 2).

Turning to `O=C(NCC1CCOCC1)c1n[nH]cc1NC(=O)c1c(F)cccc1F`, the “Growth Rate” value is listed as 0.03 with U2OS (replicate number 1); 0.42 in the data set on U2OS (replicate number 2); 0.35 in the data set on HEK-293T (replicate number 1); 0.49 in the data set on HEK-293T (replicate number 2); -0.35 in the data set with Fibroblast (replicate number 1); 0.3 in the data set on Fibroblast (replicate number 2).

With `CNC(=O)c1cnc(N2CCC[C@H](N)C2)nc1Nc1cc(C(C)C)nc(C(C)C)c1`, the “Growth Rate” value was -0.44 with U2OS (replicate number 1); 0.05 in the data set with U2OS (replicate number 2); -0.35 in the data set on HEK-293T (replicate number 1); -0.02 with HEK-293T (replicate number 2); 0.72 in the data set on Fibroblast (replicate number 1); 0.44 in the data set with Fibroblast (replicate number 2).

Values taken from ChEMBL document CHEMBL5724709, “EUbOPEN Chemogenomics Library - IncuCyte” (2024).
